Usually IC50 stands for the concentration at which inhibition is half-maximal.

The record followed here is patent US8110570B2, “Modulators of acetyl-coenzyme A carboxylase and methods of use thereof” (Cropsolution, Inc., priority 2008, dated 2012).

The test system of assay [1] is HCT-116 human colon cancer cells. In words: MTT Cell Proliferation Assay. The format is cell-based. The conditions noted are these: 72 hours, read-out: Percent of Control HCT-116. As for the experimental part: (§1) The anti-proliferative activity of test compounds against human tumor cell lines is evaluated in vitro using the ATCC's MTT Cell Proliferation Assay (Catalog No. 30-100K). Cell lines are grown using media, serum, and culture conditions recommended by the ATCC. Stock cultures are allowed to grow to 70-80% confluence. Cells are seeded into 96-well culture plates at a predetermined density on day 0 in complete medium (0.1 mL). Plates are placed in a humidified incubator at 37° C. with 5% CO2 and 95% HEPA filtered room air for 24 hours. At this point compound (0.1 mL of 2× stock (in media)) is added to the indicated wells and the plates are returned to the incubator for 72 hours. Cell proliferation is measured by addition of MTT reagent to each well and incubated for an additional 4 hours, followed by addition of cell lysis/MTT solublization reagent and incubating overnight. […] Results are expressed as percent of control cells versus compound concentration. Compounds of the present invention, and salts thereof, were evaluated for anti-proliferative activity as described above.

The test system of assay [2] is PC-3 human prostate cancer cells. Briefly: MTT Cell Proliferation Assay. The format is cell-based. The conditions noted are these: 72 hours, read-out: Percent of Control PC-3. As for the experimental part: as §1
The subject of assay [3] is MDA-MB-231 human breast cancer cells. In words: MTT Cell Proliferation Assay. The assay is classed as cell-based. The conditions noted are these: 72 hours, read-out: Percent of Control MDA-MB-231. On the procedure: as §1
For assay [4], the system named is A2780 human ovary cancer cells. In words: MTT Cell Proliferation Assay. The format is cell-based. The following applies: 72 hours, read-out: Percent of Control A2780. On the procedure: as §1
The test system of assay [5] is hepatic fatty acid synthesis. In words: In vivo inhibition of rat hepatic fatty acid synthesis. The following applies: oral. As for the experimental part:
In vivo measurement of fatty acid synthesis inhibition in mammals. Incorporation of [2-^14C]acetate into saponifiable lipids in the livers of mammals (e.g. Sprague Dawley rats, Charles River Laboratories, Boston, Mass. or Harlan Laboratories, Indianapolis, Ind.) can be measured as described previously (Harwood Jr. H. J. et al., J Biol Chem, 39: 37099-37111 (2003)). For example, animals given food and water ad libitum are treated orally at volume of 1.0 ml/200 g of body weight with either an aqueous solution containing 0.5% methyl cellulose (vehicle) or an aqueous solution containing 0.5% methyl cellulose containing test compound. One hour after compound administration, animals receive an intraperitoneal injection of [2-^14C]acetate (0.02 mL, 1 mCi/mL; 50 mCi/mmol. One hour after radiolabel administration, animals are sacrificed by CO2 asphyxiation, and two liver pieces (about 0.75 g each) are removed and saponified at 70° C. for 120 min in 2.5 M NaOH (1.5 mL). After saponification, absolute EtOH (2.5 mL) is added to each sample and the solutions are mixed and allowed to stand overnight. Petroleum ether (4.8 mL) is then added to each sample, and after vigorous shaking (2 min) the mixtures are centrifuged at 1000×g (5 min). The petroleum ether layer containing the nonsaponifiable lipids is removed and discarded. The remaining aqueous layer is acidified (pH<2) by addition of 12 M HCl (0.6 mL) and extracted two times with petroleum ether (4.8 mL). The pooled organic fractions are transferred to liquid scintillation vials, dried under nitrogen, dissolved in Aquasol scintillation fluid (7 ml), and radioactivity is quantified by liquid scintillation counting. Inhibition of fatty acid synthesis by the test compound is expressed as a relative percent inhibition of measured incorporation of [2-^14C]acetate into saponifiable lipids during the interval between [2-^14C]acetate injection and CO2 asphyxiation in animals receiving test compound, compared to control animals receiving only the vehicle.
Compounds of the present invention, and salts thereof, were evaluated for inhibition of fatty acid synthesis as described above.

The next assay concerns the target T1, hACC1 (Homo sapiens, UniProt Q13085).
T1 construct: PCR primers were designed for full-length hACC1 and hACC2 using GenBank submissions AY237919 and AJ575592, respectively; His tag (C); made in house; host or cells: baculovirus, Sf9 insect cells
In words: [14C]bicarbonate incorporation assay, overall ACC activity. The assay is classed as biochemical. The conditions noted are these: recombinant hACC1, overall ACC activity. The essentials: (§2)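 His-tagged full-length hACC1 or hACC2 (residues 1-148 deleted, Met-Gly added), expressed in sf9 cells with biotin and purified, were assayed by [14C]bicarbonate incorporation into acetyl-CoA. Reactions at pH 7.4 with 2 mM acetyl-CoA, 12 mM NaHCO3 and 1% DMSO were started with 2 mM ATP and run 10 min at 37° C. Acid-stable label was counted and IC50 obtained from dose-response fits.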

The next assay deals with T2, hACC2 (Homo sapiens, UniProt O00763).
T2 construct: delete amino acids 1-148 and add Met-Gly in front of Lys149 in the final product; His tag (C); made in house; host or cells: baculovirus, Sf9 insect cells
The description is as above. The assay is classed as biochemical. The conditions noted are these: recombinant hACC2, overall ACC activity. In short, it runs like this:
as §2

Assay [6] has as its target uACC (Ustilago maydis ACC) (Ustilago maydis, UniProt A0A0D1DYD5). The description is as above. The assay is classed as biochemical.
A further assay concerns C2C12 cells. In words: Fatty acid oxidation assay, [1-14C]palmitate to CO2. The format is cell-based, mouse. The conditions noted are these: compared to untreated controls. The text has this:
(§3) The in vivo ACC inhibitory activity of compounds in this invention can be confirmed in cultured cells using standard procedures that are well known to those skilled in the art. For example, since ACC catalyzes the first committed step in fatty acid biosynthesis, the in vivo activity of compounds can be confirmed by measuring their ability to prevent the formation of radiolabeled fatty acids from radiolabeled acetate in cultured human hepatoma cells (HepG2). In addition, since the malonyl-CoA produced by ACC inhibits fatty acid oxidation, the in vivo ACC inhibitory activity of compounds can be further confirmed by measuring the stimulation of fatty acid oxidation in cultured mouse myoblast cells (C2C12).
Fatty acid oxidation assays are performed essentially as described (Beckers et al., Cancer Res, 2007, 67: 8180-8187). Briefly, C2C12 cells are plated at 600,000 cells/T25 flask. The next day, media is changed and the DMSO with or without test compound is added to a final concentration of 0.5% (v/v). After 1 h at 37° C. in atmosphere of 5% CO2, freshly made 2 uCi of FA-free bovine serum albumin-[1-^14C] palmitate complex is added to each flask. The flasks are then sealed with a stopper and incubated 6 h at 37° C. after which evolved CO2 is liberated by injection of perchloric acid to final concentration of 5% and captured by incubating the flasks overnight in the presence of filter paper soaked with 5% KOH. The filters are then air-dried and incubated with scintillation cocktail overnight for equilibrium. Radioactivity is quantified by scintillation counting.

Another assay concerns HepG2 cells. In words: Fatty acid synthesis assay, 14C-acetate incorporation into phospholipids. The following applies: Homo sapiens, 24 h, read-out: inhibition of radiolabel incorporation into phospholipids. The assay is classed as cell-based.
Source text: as §3
Fatty acid synthesis assays are performed with slight modifications to published procedures (Beckers et al., Cancer Res, 2007, 67: 8180-8187; Wang, J Lipid Res., 2006, 47:2028-41). Briefly, HepG2 cells are grown in Dulbecco's modified eagles medium containing 10% fetal calf serum in 6-well culture plates. Cells are treated for 24 h with test compounds added as DMSO stock solutions to a final DMSO concentration of 0.5% (v/v). After test compound incubation, ^14C—[2]-acetate is added (3 μCi/6 well plate) and cells are further incubated for 4 hrs. Cells are then harvested in 40% methanol and assayed for total protein. Total lipids are extracted with chloroform:methanol (2:1) and ^14C-radioactivity is quantified in the aqueous and organic phases. Total lipids in the organic phase are separated by thin-layer chromatography (TLC, silica gel 60A) using hexane:ether:acetic acid (90:30:1) as the mobile phase. Radioactivity distribution of lipid classes on TLC plates is quantified by phosphorimaging (Molecular Dynamics Storm 820). Compound 6 inhibited radiolabel incorporation into phospholipids 32% and 14% at 10 μM and 1 μM, respectively, while Compound 2 inhibited radiolabel incorporation into phospholipids 93% and 42% at 10 μM and 1 μM, respectively.

T2 sequence (O00763 149-2458 limits assumed): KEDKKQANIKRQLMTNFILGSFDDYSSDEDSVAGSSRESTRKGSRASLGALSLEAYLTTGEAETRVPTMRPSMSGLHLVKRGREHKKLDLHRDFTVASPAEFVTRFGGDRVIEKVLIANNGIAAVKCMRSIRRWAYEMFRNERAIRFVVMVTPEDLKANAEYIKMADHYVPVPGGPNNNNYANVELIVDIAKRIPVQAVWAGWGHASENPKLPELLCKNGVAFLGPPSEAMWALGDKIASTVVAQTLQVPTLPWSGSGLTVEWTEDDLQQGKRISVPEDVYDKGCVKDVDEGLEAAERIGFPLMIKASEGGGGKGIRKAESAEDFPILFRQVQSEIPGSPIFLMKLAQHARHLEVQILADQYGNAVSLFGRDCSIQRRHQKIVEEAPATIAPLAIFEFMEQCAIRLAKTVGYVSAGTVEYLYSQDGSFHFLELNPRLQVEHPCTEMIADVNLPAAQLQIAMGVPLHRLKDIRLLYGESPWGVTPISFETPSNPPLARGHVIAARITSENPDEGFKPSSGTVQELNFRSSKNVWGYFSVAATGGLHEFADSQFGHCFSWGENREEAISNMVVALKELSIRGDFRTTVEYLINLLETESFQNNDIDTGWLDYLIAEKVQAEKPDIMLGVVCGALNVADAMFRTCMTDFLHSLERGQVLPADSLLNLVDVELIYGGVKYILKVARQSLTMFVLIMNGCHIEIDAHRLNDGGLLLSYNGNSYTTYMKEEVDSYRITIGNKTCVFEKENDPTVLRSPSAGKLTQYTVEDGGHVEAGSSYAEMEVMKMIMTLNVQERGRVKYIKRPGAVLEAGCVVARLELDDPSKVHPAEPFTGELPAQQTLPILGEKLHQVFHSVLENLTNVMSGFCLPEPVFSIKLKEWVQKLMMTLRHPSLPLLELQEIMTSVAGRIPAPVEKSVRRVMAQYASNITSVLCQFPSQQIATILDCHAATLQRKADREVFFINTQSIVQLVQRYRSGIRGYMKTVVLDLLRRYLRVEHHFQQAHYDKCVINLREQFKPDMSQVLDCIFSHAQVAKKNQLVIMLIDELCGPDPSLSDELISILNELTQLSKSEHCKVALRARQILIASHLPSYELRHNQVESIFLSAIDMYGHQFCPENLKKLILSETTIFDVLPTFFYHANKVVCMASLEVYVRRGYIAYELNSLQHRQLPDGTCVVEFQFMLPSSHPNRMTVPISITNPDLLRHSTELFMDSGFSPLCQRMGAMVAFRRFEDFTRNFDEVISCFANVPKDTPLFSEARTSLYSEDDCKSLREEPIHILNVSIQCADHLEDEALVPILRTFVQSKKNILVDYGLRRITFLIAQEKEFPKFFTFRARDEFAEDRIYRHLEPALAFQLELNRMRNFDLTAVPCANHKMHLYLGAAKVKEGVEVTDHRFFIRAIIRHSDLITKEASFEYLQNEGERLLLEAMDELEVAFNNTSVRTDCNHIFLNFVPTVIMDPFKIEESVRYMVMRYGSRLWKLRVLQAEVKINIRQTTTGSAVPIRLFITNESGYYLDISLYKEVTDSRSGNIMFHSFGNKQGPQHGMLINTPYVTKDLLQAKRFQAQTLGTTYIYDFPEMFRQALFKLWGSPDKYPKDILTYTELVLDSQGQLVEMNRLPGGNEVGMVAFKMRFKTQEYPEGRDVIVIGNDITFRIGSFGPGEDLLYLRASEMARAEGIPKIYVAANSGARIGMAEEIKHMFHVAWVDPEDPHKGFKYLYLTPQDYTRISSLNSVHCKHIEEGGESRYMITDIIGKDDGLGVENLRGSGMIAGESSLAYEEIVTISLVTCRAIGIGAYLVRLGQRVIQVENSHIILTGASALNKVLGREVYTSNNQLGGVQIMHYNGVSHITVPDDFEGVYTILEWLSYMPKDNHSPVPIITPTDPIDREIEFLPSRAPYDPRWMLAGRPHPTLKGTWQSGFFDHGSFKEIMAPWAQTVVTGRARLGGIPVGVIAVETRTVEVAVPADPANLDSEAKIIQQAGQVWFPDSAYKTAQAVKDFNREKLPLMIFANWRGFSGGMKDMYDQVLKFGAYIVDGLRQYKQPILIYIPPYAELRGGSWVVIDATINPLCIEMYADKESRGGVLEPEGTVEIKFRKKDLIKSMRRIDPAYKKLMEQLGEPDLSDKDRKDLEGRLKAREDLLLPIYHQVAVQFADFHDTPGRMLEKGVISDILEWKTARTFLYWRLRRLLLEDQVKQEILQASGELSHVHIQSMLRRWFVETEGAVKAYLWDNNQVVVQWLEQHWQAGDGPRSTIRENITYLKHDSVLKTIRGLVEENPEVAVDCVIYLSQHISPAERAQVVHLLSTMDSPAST
Sequence of uACC (Ustilago maydis ACC) (A0A0D1DYD5 entry or part of it): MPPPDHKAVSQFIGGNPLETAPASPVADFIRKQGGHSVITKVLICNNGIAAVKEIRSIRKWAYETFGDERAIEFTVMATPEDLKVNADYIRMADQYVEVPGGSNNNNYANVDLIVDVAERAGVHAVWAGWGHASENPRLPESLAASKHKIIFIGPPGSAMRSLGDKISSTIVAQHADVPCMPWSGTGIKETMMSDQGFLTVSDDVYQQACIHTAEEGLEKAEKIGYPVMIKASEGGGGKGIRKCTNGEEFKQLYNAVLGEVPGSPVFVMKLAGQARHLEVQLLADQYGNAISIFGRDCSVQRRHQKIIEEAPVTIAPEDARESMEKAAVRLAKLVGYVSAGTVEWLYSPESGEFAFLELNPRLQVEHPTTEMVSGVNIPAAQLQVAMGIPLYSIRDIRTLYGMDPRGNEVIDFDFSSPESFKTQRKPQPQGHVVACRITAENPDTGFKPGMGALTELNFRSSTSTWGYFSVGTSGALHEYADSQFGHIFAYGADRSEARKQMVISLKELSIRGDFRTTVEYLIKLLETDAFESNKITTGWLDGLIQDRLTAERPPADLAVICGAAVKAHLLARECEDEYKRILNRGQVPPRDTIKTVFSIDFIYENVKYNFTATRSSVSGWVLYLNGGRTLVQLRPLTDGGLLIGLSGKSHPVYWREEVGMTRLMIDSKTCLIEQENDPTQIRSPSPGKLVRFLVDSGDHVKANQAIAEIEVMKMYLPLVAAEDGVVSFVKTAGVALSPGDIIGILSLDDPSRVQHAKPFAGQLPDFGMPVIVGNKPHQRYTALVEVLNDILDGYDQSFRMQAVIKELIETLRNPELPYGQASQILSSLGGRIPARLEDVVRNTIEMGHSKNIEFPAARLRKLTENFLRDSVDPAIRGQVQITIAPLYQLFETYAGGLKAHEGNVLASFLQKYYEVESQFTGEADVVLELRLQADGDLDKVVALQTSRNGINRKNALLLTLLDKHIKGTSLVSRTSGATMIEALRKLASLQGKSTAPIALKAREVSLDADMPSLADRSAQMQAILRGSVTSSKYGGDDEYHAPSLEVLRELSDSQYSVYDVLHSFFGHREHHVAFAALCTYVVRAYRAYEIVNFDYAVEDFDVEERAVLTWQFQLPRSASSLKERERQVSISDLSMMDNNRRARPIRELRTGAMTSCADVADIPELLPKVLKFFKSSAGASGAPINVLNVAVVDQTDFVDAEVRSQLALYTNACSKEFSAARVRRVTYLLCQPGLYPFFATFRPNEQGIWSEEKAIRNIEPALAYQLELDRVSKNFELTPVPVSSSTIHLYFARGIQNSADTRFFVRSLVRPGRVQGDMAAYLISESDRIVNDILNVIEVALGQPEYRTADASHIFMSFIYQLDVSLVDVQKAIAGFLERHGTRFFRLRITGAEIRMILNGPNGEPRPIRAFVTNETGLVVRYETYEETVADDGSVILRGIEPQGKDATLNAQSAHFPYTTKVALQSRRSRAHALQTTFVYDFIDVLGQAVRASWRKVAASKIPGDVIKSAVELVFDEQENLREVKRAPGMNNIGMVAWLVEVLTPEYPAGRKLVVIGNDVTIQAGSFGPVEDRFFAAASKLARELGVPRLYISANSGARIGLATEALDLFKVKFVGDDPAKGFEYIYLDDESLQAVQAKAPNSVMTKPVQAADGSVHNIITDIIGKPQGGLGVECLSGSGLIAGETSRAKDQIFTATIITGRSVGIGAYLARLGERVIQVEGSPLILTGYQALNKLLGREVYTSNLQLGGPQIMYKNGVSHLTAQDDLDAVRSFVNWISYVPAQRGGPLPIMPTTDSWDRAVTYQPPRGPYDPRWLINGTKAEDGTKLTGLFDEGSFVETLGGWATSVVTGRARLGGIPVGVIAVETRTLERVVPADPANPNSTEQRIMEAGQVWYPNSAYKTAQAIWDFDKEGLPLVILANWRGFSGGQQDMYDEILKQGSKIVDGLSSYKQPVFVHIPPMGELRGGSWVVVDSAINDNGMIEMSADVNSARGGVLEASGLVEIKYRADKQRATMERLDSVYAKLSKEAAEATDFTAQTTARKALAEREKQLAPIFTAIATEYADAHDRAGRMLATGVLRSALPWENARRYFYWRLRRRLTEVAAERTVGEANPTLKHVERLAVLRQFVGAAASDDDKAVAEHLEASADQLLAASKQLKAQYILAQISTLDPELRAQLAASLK

Turning to `COc1cc(C(=O)N2CCC3(CC2)NC(=O)c2cc(N4CCOCC4)ccc2O3)nc2c(OC)cccc12` [Compound 196], the activity at 3.3 µM worked out at 63.6% in [1], 50.7% in [2], 73.7% in [3] and 81.6% in assay [4]. Further, the activity at 10 µM in [1] came to 58.5%; in [2], 39%; in [3], 56.1%; in [4] it was 56.4%. In addition, the “Percent Inhibition at 10 mg/Kg” value in assay [5] came out at 67%. In addition, the 50% inhibitory concentration (IC50) on hACC1 is 200 nM; at hACC2, 21 nM.

Consider `COc1cc(C(=O)N2CCC3(CC2)NC(=O)c2cc(C(C)C)ccc2O3)nc2c(OC)cccc12` [Compound 186], for which the activity at 3.3 µM in assay [1] is 53.6%; in [2], 48.9%; in assay [3], 74.2%; in assay [4], 59.5%. In addition, the activity at 10 µM in assay [1] was 41.8%; in [2] it was 33.2%; in assay [3], 39.2%; in [4] it was 52.1%. For the same compound, the “Percent Inhibition at 10 mg/Kg” value in assay [5] worked out at 55%. The “Percent Inhibition at 30 mg/Kg” value in assay [5] was found to be 78%. Further, the IC50 on hACC1 and on hACC2 was 2 nM each time.

With `Cc1c(C(=O)N2CCC3(CC2)NC(=O)c2ccccc2O3)[nH]c2ccc(F)cc12` [Compound 6, 1′-[(5-Fluoro-3-methyl-1H-indol-2-yl)carbonyl]spiro[2H-1,3-benzoxazin-2,4′-piperidin]-4-(3H)-one], the values for the IC50 (in assay [6]; on hACC1; on hACC2) were 40000 nM, 2300 nM and 2000 nM, respectively. For the same compound, the “stimulation of fatty acid oxidation” value came to 260% with C2C12 cells (C2C12, 0.2 μM) and 299% in the assay on C2C12 cells (C2C12, 2 μM). Further, the inhibition at 1 µM in the assay with HepG2 cells (HepG2, 1 μM) came out at 14%. The inhibition at 10 µM with HepG2 cells (HepG2, 10 μM) came to 32%.

As to `CCOc1ccc2c(c1)C(=O)NC1(CCN(C(=O)c3[nH]c4c(OC)cccc4c3C)CC1)O2` [Compound 144], the IC50 in assay [6] was 14000 nM; on hACC1, 61 nM; at hACC2 it was 88 nM. The activity at 3.3 µM was found to be 64.9% in assay [1], 76.5% in assay [2], 88.9% in assay [3] and 65% in assay [4]. In addition, the activity at 10 µM amounted to 39.1% in [1], 67.2% in [2], 34.5% in assay [3] and 25.1% in [4]. The “Percent Inhibition at 30 mg/Kg” value in assay [5] came to 9%.

Take `CCOc1ccc2c(c1)C(=O)NC1(CCN(C(=O)c3cc(OC)c4cccc(OC)c4n3)CC1)O2` [Compound 139]: the half-inhibitory concentration (IC50) in [6] was 20000 nM; on hACC1, 50 nM; on hACC2, 33 nM. The activity at 3.3 µM was determined as 68.4% in assay [1], 57% in [2], 70.3% in assay [3] and 85.9% in assay [4]. For the same compound, the activity at 10 µM was found to be 49.9% in [1], 54.7% in assay [2], 46.4% in [3] and 60.1% in [4].

In the case of `COc1cc(C(=O)N2CCC3(CC2)NC(=O)c2cc(OC(F)(F)F)ccc2O3)nc2c(OC)cccc12` [Compound 172], the activity at 3.3 µM in assay [1] came to 61.4%; in assay [2], 63%; in assay [3] it was 54.1%; in assay [4], 97.4%. In addition, the activity at 10 µM in assay [1] was found to be 41.6%; in assay [2] it was 55.7%; in assay [3], 29.5%; in assay [4], 65.5%. The “Percent Inhibition at 10 mg/Kg” value in assay [5] stood at 5%. At hACC1, the IC50 worked out at 7 nM.

`Cc1nn(C)c2sc(C(=O)N3CCC4(CC3)NC(=O)c3cc(Br)ccc3O4)cc12` [Compound 4, 6-Bromo-1′-{(1,3-dimethyl-1H-thieno[2,3-c]pyrazol-5-yl)carbonyl} spiro[2H-1,3-benzoxazin-2,4′-piperidin]-4-(3H)-one]: the IC50 in assay [6] was 50000 nM; at hACC1, 2800 nM; at hACC2, 2900 nM.

Take `COc1cc2c(OC)cccc2cc1C(=O)N1CCC2(CC1)NC(=O)c1cc(Br)ccc1O2` [Compound 3, 6-Bromo-1′-[(3,5-dimethoxynaphth-2-yl)carbonyl]spiro[2H-1,3-benzoxazine-2,4′-piperidine]-4(3H)-one]: the IC50 in [6] was 90000 nM; at hACC1, 860 nM; on hACC2 it was 290 nM.

Turning to `COc1cc(C(=O)N2CCC3(CC2)NC(=O)c2cc(NC(C)=O)ccc2O3)nc2c(C3CC3)cccc12` [Compound 33], the IC50 turned out to be 19300 nM in assay [6], 73 nM on hACC1 and 51 nM at hACC2.
